Test results reported in ChEMBL document CHEMBL1201862, “PubChem BioAssay data set” (2004).
Values belong to the compound of their own block, whether it stands above or below them. Active and inactive are the calls of the source.

Assays:
Phospholipase A2 = Phospholipase A2 (Homo sapiens, UniProt P04054); assay type: functional;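 further: confirmatory dose-response counterscreen on phospholipase A2, testing hits that came from an ultra-high-throughput screen for ATG4B inhibitors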
[1] = molecular target: T1, Rac GTPase-activating protein 1 (Homo sapiens, UniProt Q9H0H5); assay: blockers of MgcRacGAP-driven Rac1 GTP hydrolysis – biochemical, ADP Hunter fluorescence, primary and confirmatory, confirmation (AID 624330); assay type: functional
T1 sequence (Q9H0H5 whole entry): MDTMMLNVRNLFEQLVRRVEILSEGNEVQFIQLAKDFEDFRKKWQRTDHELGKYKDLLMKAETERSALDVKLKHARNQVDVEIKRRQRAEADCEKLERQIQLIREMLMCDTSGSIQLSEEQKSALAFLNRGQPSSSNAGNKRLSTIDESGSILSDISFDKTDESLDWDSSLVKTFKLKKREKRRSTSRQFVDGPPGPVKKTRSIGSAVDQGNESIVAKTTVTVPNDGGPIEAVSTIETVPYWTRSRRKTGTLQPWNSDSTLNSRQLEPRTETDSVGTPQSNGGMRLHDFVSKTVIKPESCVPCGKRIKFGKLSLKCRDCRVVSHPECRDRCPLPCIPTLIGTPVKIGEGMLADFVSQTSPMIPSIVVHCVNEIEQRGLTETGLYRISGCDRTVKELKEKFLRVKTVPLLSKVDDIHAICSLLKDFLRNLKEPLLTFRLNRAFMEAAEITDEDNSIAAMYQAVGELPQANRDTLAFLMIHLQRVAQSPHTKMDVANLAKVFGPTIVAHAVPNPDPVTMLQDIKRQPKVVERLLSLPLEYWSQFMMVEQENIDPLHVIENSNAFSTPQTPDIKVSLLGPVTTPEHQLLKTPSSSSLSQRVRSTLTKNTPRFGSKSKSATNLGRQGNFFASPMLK

[2] = molecular target: T2, DNA repair protein RAD52 homolog (Homo sapiens, UniProt P43351); assay type: functional, biochemical
T2 sequence (P43351 whole entry): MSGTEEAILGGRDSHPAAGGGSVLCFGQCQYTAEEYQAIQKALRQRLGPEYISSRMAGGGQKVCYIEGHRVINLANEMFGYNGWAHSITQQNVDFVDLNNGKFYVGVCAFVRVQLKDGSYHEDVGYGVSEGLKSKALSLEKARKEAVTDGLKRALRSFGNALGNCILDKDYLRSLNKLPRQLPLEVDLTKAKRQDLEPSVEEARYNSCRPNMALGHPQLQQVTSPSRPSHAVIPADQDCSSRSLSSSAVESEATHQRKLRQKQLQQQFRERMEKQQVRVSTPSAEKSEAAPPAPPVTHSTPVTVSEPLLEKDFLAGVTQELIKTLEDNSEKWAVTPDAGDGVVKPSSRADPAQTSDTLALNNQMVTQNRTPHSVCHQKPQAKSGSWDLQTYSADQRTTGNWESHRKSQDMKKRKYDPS

[3] = molecular target: 72 kDa type IV collagenase (Homo sapiens, UniProt P08253); assay: Dose Response validation of uHTS RPN11 inhibitor hits using a MMP-2 Fluorescence assay.; assay type: functional
72 kDa type IV collagenase, sequence (P08253 whole entry): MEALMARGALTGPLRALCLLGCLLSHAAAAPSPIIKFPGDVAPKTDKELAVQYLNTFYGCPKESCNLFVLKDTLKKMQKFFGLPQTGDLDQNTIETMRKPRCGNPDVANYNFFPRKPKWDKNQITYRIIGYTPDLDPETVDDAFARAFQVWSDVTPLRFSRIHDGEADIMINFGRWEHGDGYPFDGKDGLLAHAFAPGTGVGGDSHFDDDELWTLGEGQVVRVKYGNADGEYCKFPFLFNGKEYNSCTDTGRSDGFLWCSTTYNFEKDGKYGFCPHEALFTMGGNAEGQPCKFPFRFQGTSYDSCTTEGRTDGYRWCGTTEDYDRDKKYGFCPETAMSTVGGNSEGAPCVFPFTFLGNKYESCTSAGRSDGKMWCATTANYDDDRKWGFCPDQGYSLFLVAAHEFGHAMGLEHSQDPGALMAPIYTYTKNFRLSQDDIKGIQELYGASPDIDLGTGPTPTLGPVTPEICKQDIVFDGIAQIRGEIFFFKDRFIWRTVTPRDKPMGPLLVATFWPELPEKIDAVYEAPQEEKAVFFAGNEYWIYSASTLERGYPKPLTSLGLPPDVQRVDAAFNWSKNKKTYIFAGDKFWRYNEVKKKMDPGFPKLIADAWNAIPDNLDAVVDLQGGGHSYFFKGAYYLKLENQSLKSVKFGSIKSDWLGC

Prothrombin = Prothrombin (Bos taurus, UniProt P00735); assay: thrombin protease inhibitors – biochemical, fluorescence polarization, uHTS hits, dose response (AID 602369); assay type: functional
[4] = molecular target: Heat shock protein HSP 90-alpha (Homo sapiens, UniProt P07900); assay type: functional, organism-based
[5] = molecular target: 26S proteasome non-ATPase regulatory subunit 14 (Homo sapiens, UniProt O00487); assay: inhibition of proteasome subunit RPN11 – biochemical, fluorescence polarization, uHTS hits, confirmation (AID 602368); assay type: functional
26S proteasome non-ATPase regulatory subunit 14, sequence (O00487 whole entry): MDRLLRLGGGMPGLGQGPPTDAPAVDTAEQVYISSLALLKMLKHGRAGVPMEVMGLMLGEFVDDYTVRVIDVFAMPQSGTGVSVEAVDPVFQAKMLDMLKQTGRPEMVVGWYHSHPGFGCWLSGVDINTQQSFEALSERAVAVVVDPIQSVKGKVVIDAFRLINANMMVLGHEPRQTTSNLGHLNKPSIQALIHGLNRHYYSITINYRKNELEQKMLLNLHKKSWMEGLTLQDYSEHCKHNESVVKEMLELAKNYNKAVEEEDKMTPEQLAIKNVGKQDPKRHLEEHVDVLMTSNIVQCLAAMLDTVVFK

[6] = viability loss in HeLa cells – cytotoxicity control for MgcRacGAP inhibitor project, dose response (AID 624300); assay type: functional
Cysteine protease ATG4B = Cysteine protease ATG4B (Homo sapiens, UniProt Q9Y4P1); assay type: functional;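 further: Fluorescence-based dose-response confirmation assay measuring inhibition of ATG4B activity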
Cysteine protease ATG4B, sequence (Q9Y4P1 whole entry): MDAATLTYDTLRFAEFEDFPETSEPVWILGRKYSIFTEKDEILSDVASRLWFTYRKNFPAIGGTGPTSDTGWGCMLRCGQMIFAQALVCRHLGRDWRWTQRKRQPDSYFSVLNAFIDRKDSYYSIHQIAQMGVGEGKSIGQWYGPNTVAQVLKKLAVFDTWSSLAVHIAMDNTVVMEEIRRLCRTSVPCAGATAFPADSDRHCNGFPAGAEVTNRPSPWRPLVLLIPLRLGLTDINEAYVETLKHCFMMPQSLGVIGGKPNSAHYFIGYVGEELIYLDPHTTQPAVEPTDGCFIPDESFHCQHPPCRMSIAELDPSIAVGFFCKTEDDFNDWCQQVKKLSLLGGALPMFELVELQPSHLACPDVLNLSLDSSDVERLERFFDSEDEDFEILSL

[7] = molecular target: T3, Sentrin-specific protease 7 (Homo sapiens, UniProt Q9BQF6); assay: inhibition of human SENP7 cleavage activity – biochemical, luminescence, SAR follow-up (AID 504497); assay type: functional
T3 sequence (Q9BQF6 whole entry): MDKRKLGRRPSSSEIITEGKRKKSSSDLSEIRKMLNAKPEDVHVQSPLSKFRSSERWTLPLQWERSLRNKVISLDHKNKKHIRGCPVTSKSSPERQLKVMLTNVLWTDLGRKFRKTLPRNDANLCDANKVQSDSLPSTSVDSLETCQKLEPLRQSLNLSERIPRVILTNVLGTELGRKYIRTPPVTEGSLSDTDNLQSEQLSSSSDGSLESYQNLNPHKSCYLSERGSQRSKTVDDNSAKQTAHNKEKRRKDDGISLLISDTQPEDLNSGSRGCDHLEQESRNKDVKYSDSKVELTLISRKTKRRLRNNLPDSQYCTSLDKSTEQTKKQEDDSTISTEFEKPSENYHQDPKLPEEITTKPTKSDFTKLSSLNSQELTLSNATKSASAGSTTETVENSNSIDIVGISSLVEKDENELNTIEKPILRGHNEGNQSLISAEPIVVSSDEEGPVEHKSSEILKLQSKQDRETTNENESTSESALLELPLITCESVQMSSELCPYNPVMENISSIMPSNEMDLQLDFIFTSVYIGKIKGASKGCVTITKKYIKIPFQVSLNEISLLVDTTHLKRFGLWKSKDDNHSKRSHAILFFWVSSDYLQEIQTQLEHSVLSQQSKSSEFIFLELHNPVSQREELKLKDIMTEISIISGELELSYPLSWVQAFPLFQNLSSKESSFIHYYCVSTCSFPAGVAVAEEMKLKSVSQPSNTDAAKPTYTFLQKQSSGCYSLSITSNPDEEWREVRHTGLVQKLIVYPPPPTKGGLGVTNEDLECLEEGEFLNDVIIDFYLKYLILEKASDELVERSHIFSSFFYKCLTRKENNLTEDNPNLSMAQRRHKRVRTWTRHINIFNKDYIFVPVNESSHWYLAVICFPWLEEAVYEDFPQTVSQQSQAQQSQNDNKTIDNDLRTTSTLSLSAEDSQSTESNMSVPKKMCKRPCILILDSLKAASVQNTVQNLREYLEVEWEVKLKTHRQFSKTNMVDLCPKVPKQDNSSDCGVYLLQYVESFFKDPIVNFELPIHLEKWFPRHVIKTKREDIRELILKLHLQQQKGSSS

[8] = molecular target: T4, Sentrin-specific protease 8 (Homo sapiens, UniProt Q96LD8); assay: inhibition of human SENP8 cleavage activity – biochemical, luminescence, SAR follow-up (AID 504501); assay type: functional
T4 sequence (Q96LD8 whole entry): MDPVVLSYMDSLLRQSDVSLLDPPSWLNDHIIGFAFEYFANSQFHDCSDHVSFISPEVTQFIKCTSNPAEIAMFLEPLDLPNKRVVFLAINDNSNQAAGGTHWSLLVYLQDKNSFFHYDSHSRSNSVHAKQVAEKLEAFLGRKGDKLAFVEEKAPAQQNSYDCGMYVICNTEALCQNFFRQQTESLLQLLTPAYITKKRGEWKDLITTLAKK

Caspase-3 = molecular target: T5, Caspase-3 (Homo sapiens, UniProt P42574); assay: SAR Analysis of small molecule inhibitors of Sentrin-specific proteases (SENPs) using a Caspase-3 Selectivity assay. [Related pubchem assays (depositor defined):AID2540, AID2599, AID434973, AID489001]; assay type: functional
T5 sequence (P42574 whole entry): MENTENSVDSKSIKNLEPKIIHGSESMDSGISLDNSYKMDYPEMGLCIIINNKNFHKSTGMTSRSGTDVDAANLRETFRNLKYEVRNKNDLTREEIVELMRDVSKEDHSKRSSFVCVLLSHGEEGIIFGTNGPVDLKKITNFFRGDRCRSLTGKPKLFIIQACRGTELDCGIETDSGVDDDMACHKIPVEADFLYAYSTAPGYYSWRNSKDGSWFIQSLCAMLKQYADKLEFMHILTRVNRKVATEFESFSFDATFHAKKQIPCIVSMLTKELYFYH

[9] = molecular target: T6, Sentrin-specific protease 6 (Homo sapiens, UniProt Q9GZR1); assay: SAR Analysis of small molecule inhibitors of Sentrin-specific protease 6 (SENP6) using a Luminescent assay. [Related pubchem assays (depositor defined):AID2582, AID2599]; assay type: functional
T6 sequence (Q9GZR1 whole entry): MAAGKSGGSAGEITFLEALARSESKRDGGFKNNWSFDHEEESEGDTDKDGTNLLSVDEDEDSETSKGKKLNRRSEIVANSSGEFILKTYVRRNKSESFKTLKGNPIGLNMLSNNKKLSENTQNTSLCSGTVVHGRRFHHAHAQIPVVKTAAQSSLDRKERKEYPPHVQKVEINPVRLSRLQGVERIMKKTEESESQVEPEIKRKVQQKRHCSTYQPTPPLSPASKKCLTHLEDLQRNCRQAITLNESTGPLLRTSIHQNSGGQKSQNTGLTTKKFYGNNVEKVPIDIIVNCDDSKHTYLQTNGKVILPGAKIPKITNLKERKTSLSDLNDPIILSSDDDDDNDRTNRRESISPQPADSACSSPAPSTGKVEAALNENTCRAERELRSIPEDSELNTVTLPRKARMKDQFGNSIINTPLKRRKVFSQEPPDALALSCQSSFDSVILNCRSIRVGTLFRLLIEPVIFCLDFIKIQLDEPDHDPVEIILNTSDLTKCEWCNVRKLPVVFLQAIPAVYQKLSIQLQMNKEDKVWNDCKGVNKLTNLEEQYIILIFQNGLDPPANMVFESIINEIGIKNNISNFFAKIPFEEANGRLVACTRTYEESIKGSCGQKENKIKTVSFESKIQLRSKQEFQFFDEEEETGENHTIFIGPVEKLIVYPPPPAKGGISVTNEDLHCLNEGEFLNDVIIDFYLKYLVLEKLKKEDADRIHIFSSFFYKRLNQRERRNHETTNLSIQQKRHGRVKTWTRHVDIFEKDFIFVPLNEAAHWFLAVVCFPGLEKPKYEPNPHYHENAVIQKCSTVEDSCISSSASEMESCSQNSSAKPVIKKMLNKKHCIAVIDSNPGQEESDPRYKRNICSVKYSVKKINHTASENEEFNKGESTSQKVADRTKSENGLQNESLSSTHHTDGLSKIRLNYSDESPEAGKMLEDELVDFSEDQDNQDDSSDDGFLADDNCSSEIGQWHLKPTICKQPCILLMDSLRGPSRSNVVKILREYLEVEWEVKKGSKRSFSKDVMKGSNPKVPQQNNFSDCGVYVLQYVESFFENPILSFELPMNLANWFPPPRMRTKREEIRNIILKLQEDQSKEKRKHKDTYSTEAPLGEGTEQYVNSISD

BJ [10] = assay: growth inhibition of engineered Ras-driven BJ cells – cell-based, alamar blue fluorescence, cherrypicked samples, dose response (AID 2631); assay type: functional; conditions: Homo sapiens;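 further: confirmatory dose-response assay in RAS-dependent BJ fibroblasts engineered with TERT, LT and ST, with cytotoxicity read by fluorescence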
BJ [11] = assay: cells; assay type: functional, cell-based; conditions: Homo sapiens
BJ [12] = assay: BJ-TERT fibroblast viability loss – cell-based, RAS-independent, luminescence, dose response (AID 1933); assay type: functional; conditions: Homo sapiens
[13] = DRD fibroblast viability loss – cell-based, non-viral oncogenic, luminescence, dose response (AID 1934); assay type: functional; conditions: Homo sapiens
BJ [14] = assay: BJ-TERT-LT-ST fibroblast viability loss – cell-based, RAS-independent, luminescence, dose response (AID 1935); assay type: functional; conditions: Homo sapiens;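 further: BJ fibroblasts immortalized with TERT plus LT and ST oncogenes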

Phospholipase A2, sequence (P04054 whole entry): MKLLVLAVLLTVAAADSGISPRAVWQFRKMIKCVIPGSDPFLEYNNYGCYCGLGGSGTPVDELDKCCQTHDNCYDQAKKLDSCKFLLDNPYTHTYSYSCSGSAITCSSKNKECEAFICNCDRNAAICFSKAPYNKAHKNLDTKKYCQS

- IC50 (Phospholipase A2): 6.53 µM (active)
- IC50 [1]: 86 µM (active)
- AC50 [2]: < 30.4 µM (active)
- IC50 [3]: 81.8 µM (active)
- IC50 (Prothrombin): 45.1 µM (active)
- AC50 [4]: 5 µM (active)
- IC50 [5]: 22.1 µM (active)
- IC50 (Cysteine protease ATG4B): 7.58 µM (active)
SMILES: CCCCCCCCCCCCCCCC(O)C[N+](C)(C)CCO (stereo not drawn)
- CC50 [6]: 33.4 µM (active)

- IC50 [7]: 96.9 µM (active)
- IC50 (Caspase-3): > 99 µM (inactive)
- IC50 [9]: > 99 µM (inactive)
SMILES: O=C(O)c1ccc(N/N=C/c2cn(Cc3ccccc3)c3ccccc23)cc1
- IC50 [8]: > 99 µM (inactive)

SMILES: COc1cccc(/C=C2\SC(=S)N(CCCC(=O)Nc3cc(C)on3)C2=O)c1
- EC50 (BJ [10]): > 133 µM (inactive)
- EC50 (BJ [11]): > 150 µM (not active)
- EC50 (BJ [12]): 3.22 µM (inconclusive)
- EC50 [13]: > 150 µM (not active)
- EC50 (BJ [14]): > 150 µM (not active)

SMILES: O=C1SC(Cc2ccccc2)C(=O)N1c1ccccc1 (stereo not drawn)
- EC50 (BJ [10]): > 66.7 µM (inactive)
- EC50 (BJ [11]): > 150 µM (not active)
- EC50 (BJ [12]): 5.85 µM (active)
- EC50 [13]: 20.8 µM (active)
- EC50 (BJ [14]): > 150 µM (not active)
